Data taken from US7192906B2, “Substituted pyrazole derivatives, production process thereof, and herbicide compositions containing the derivatives” (SDS Biotech K.K., priority 2001, dated 2007).

Tested on: Rice (Oryza sativa)
Assay: Test Example 3 paddy field treatment, crop phytotoxicity
Type: in vivo
Conditions: Table 6, paddy field treatment, transplanted rice, active ingredient 1 kg per hectare, 21st day after dropping, index 0-5
Method in brief: (§1)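 Weed seeds sown in puddled paddy soil under 4 cm water, with two-leaf Koshihikari rice transplanted; 10 days later a wettable powder was applied to the water surface at 1 kg active ingredient/ha. Scored 21 days after application on a 0–5 scale (0 = <10%, 5 = ≥90% herbicidal effect or phytotoxicity).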

**Q.** `CNC(=O)C(Cn1cc(C)c(-c2ccc(OC(F)(F)CF)cc2)n1)=NOC` [Compound 67] was tested. Which “Herbicidal activity (phytotoxicity) OS” value did it give?
**A.** 0 (herbicidal effect of not less than 0% and less than 10%, or phytotoxicity of 0% or more and less than 10%)

**Q.** For `CNC(=O)C(Cn1cc(C)c(-c2ccc(F)c(OC)c2)n1)=NOC` [Compound 77], which “Herbicidal activity (phytotoxicity) OS” value is on record?
**A.** 0 (herbicidal effect of not less than 0% and less than 10%, or phytotoxicity of 0% or more and less than 10%)

Tested on: wheat (Triticum aestivum)
Assay: Test Example 1 upland field foliage treatment, crop phytotoxicity
Type: in vivo
Conditions: Table 4, upland field foliage treatment, index 0-5
Method in brief: (§2)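 Scores are visual 0–5 ratings of herbicidal effect or crop injury (0: under 10%; 5: 90% or more) taken 21 days after treatment. Plants grew from seed in upland soil for 14 days, then foliage received the compound as a water-diluted wettable powder at 1 kg/ha active ingredient.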

**Q.** With `CNC(=O)C(Cn1cc(C)c(-c2ccc(OC(F)(F)CF)cc2)n1)=NOC` [Compound 67] as the molecule, how does the “Herbicidal activity (phytotoxicity) TA: Wheat (Triticum aestivum)” value (from here on “Herbicidal activity (phytotoxicity) TA”) read?
**A.** 0 (herbicidal effect of not less than 0% and less than 10%, or phytotoxicity of 0% or more and less than 10%)

**Q.** For `CNC(=O)C(Cn1cc(C)c(-c2ccc(F)c(OC)c2)n1)=NOC` [Compound 77], which “Herbicidal activity (phytotoxicity) TA” value is on record?
**A.** 0 (herbicidal effect of not less than 0% and less than 10%, or phytotoxicity of 0% or more and less than 10%)

Tested on: soybean (Glycine max)
Assay: as above
Type: in vivo
Conditions: Table 4, upland field foliage treatment, index 0-5
Method in brief: as §2

**Q.** With `CNC(=O)C(Cn1cc(C)c(-c2ccc(OC(F)(F)CF)cc2)n1)=NOC` [Compound 67] as the molecule, how does the “Herbicidal activity (phytotoxicity) GM: Soybean (Glycine max)” value (“Herbicidal activity (phytotoxicity) GM” for short) read?
**A.** 0 (herbicidal effect of not less than 0% and less than 10%, or phytotoxicity of 0% or more and less than 10%)

**Q.** Which “Herbicidal activity (phytotoxicity) GM” value does the source give for `CNC(=O)C(Cn1cc(C)c(-c2ccc(F)c(OC)c2)n1)=NOC` [Compound 77] here?
**A.** 0 (herbicidal effect of not less than 0% and less than 10%, or phytotoxicity of 0% or more and less than 10%)

Tested on: Chenopodium album
Assay: Test Example 2 upland soil treatment
Type: in vivo
Conditions: Table 5, upland soil treatment, index 0-5
Method in brief: (§3)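 Visual 0–5 grading of herbicidal effect or phytotoxicity, made 21 days after a single pre-emergence soil-surface application at 1 kg a.i./ha.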

**Q.** With `CNC(=O)C(Cn1cc(C)c(-c2ccc(OC(F)(F)CF)cc2)n1)=NOC` [Compound 67] as the molecule, how does the “Herbicidal activity CA: Chenopodium album” value (“Herbicidal activity CA” for short) read?
**A.** 5 (herbicidal effect of not less than 90%, or phytotoxicity of 90% or more)

**Q.** With `CNC(=O)C(Cn1cc(C)c(-c2ccc(F)c(OC)c2)n1)=NOC` [Compound 77] as the molecule, how does the “Herbicidal activity CA” value read?
**A.** 5 (herbicidal effect of not less than 90%, or phytotoxicity of 90% or more)

Tested on: Stellaria media
Assay: Test Example 2 upland soil treatment
Type: in vivo
Conditions: Table 5, upland soil treatment, index 0-5
Method in brief: as §3

**Q.** Which “Herbicidal activity SM: Stellaria media” value does the source give for `CNC(=O)C(Cn1cc(C)c(-c2ccc(OC(F)(F)CF)cc2)n1)=NOC` [Compound 67] here?
**A.** 5 (herbicidal effect of not less than 90%, or phytotoxicity of 90% or more)

**Q.** Which “Herbicidal activity SM: Stellaria media” value does the source give for `CNC(=O)C(Cn1cc(C)c(-c2ccc(F)c(OC)c2)n1)=NOC` [Compound 77] here?
**A.** 5 (herbicidal effect of not less than 90%, or phytotoxicity of 90% or more)

Tested on: Digitaria adscendens
Assay: Test Example 2 upland soil treatment
Type: in vivo
Conditions: Table 5, upland soil treatment, index 0-5
Method in brief: as §3

**Q.** `CNC(=O)C(Cn1cc(C)c(-c2ccc(OC(F)(F)CF)cc2)n1)=NOC` [Compound 67] was tested. Which “Herbicidal activity DA: Digitaria adscendens” value (“Herbicidal activity DA” for short) did it give?
**A.** 4 (herbicidal effect of not less than 70% and less than 90%, or phytotoxicity of 70% or more and less than 90%)

**Q.** `CNC(=O)C(Cn1cc(C)c(-c2ccc(F)c(OC)c2)n1)=NOC` [Compound 77] was tested. Which “Herbicidal activity DA” value did it give?
**A.** 5 (herbicidal effect of not less than 90%, or phytotoxicity of 90% or more)

Tested on: Setaria viridis
Assay: Test Example 2 upland soil treatment
Type: in vivo
Conditions: Table 5, upland soil treatment, index 0-5
Method in brief: as §3

**Q.** For `CNC(=O)C(Cn1cc(C)c(-c2ccc(OC(F)(F)CF)cc2)n1)=NOC` [Compound 67], which “Herbicidal activity SV: Setaria viridis” value is on record?
**A.** 4 (herbicidal effect of not less than 70% and less than 90%, or phytotoxicity of 70% or more and less than 90%)

**Q.** Which “Herbicidal activity SV: Setaria viridis” value does the source give for `CNC(=O)C(Cn1cc(C)c(-c2ccc(F)c(OC)c2)n1)=NOC` [Compound 77] here?
**A.** 4 (herbicidal effect of not less than 70% and less than 90%, or phytotoxicity of 70% or more and less than 90%)

Tested on: Echinochloa crusgalli
Assay: Test Example 3 paddy field treatment
Type: in vivo
Conditions: Table 6, paddy field treatment, active ingredient 1 kg per hectare, 21st day after dropping, index 0-5
Method in brief: as §1

**Q.** How did the “Herbicidal activity EC” value turn out when `CNC(=O)C(Cn1cc(C)c(-c2ccc(OC(F)(F)CF)cc2)n1)=NOC` [Compound 67] was run?
**A.** 5 (herbicidal effect of not less than 90%, or phytotoxicity of 90% or more)

**Q.** For `CNC(=O)C(Cn1cc(C)c(-c2ccc(F)c(OC)c2)n1)=NOC` [Compound 77], which “Herbicidal activity EC” value is on record?
**A.** 5 (herbicidal effect of not less than 90%, or phytotoxicity of 90% or more)

Tested on: Monochoria vaginalis
Assay: Test Example 3 paddy field treatment
Type: in vivo
Conditions: Table 6, paddy field treatment, active ingredient 1 kg per hectare, 21st day after dropping, index 0-5
Method in brief: as §1

**Q.** With `CNC(=O)C(Cn1cc(C)c(-c2ccc(OC(F)(F)CF)cc2)n1)=NOC` [Compound 67] as the molecule, how does the “Herbicidal activity MV” value read?
**A.** 5 (herbicidal effect of not less than 90%, or phytotoxicity of 90% or more)

**Q.** How did the “Herbicidal activity MV” value turn out when `CNC(=O)C(Cn1cc(C)c(-c2ccc(F)c(OC)c2)n1)=NOC` [Compound 77] was run?
**A.** 5 (herbicidal effect of not less than 90%, or phytotoxicity of 90% or more)

Tested on: Ammannia multiflora
Assay: Test Example 3 paddy field treatment
Type: in vivo
Conditions: Table 6, paddy field treatment, active ingredient 1 kg per hectare, 21st day after dropping, index 0-5
Method in brief: as §1

**Q.** `CNC(=O)C(Cn1cc(C)c(-c2ccc(OC(F)(F)CF)cc2)n1)=NOC` [Compound 67] was tested. Which “Herbicidal activity AM” value did it give?
**A.** 4 (herbicidal effect of not less than 70% and less than 90%, or phytotoxicity of 70% or more and less than 90%)

**Q.** For `CNC(=O)C(Cn1cc(C)c(-c2ccc(F)c(OC)c2)n1)=NOC` [Compound 77], which “Herbicidal activity AM” value is on record?
**A.** 5 (herbicidal effect of not less than 90%, or phytotoxicity of 90% or more)

Tested on: Scirpus juncoides
Assay: Test Example 3 paddy field treatment
Type: in vivo
Conditions: Table 6, paddy field treatment, active ingredient 1 kg per hectare, 21st day after dropping, index 0-5
Method in brief: as §1

**Q.** How did the “Herbicidal activity SJ” value turn out when `CNC(=O)C(Cn1cc(C)c(-c2ccc(OC(F)(F)CF)cc2)n1)=NOC` [Compound 67] was run?
**A.** 5 (herbicidal effect of not less than 90%, or phytotoxicity of 90% or more)

**Q.** `CNC(=O)C(Cn1cc(C)c(-c2ccc(F)c(OC)c2)n1)=NOC` [Compound 77] was tested. Which “Herbicidal activity SJ” value did it give?
**A.** 5 (herbicidal effect of not less than 90%, or phytotoxicity of 90% or more)

Tested on: wheat (Triticum aestivum)
Assay: Test Example 2 upland soil treatment, crop phytotoxicity
Type: in vivo
Conditions: Table 5, upland soil treatment, index 0-5
Method in brief: as §3

**Q.** With `CNC(=O)C(Cn1cc(C)c(-c2ccc(OC(F)(F)CF)cc2)n1)=NOC` [Compound 67] as the molecule, how does the “Herbicidal activity (phytotoxicity) TA” value read?
**A.** 0 (herbicidal effect of not less than 0% and less than 10%, or phytotoxicity of 0% or more and less than 10%)

**Q.** Which “Herbicidal activity (phytotoxicity) TA” value does the source give for `CNC(=O)C(Cn1cc(C)c(-c2ccc(F)c(OC)c2)n1)=NOC` [Compound 77] here?
**A.** 0 (herbicidal effect of not less than 0% and less than 10%, or phytotoxicity of 0% or more and less than 10%)

Tested on: soybean (Glycine max)
Assay: as above
Type: in vivo
Conditions: Table 5, upland soil treatment, index 0-5
Method in brief: as §3

**Q.** For `CNC(=O)C(Cn1cc(C)c(-c2ccc(OC(F)(F)CF)cc2)n1)=NOC` [Compound 67], which “Herbicidal activity (phytotoxicity) GM” value is on record?
**A.** 0 (herbicidal effect of not less than 0% and less than 10%, or phytotoxicity of 0% or more and less than 10%)

**Q.** Which “Herbicidal activity (phytotoxicity) GM” value does the source give for `CNC(=O)C(Cn1cc(C)c(-c2ccc(F)c(OC)c2)n1)=NOC` [Compound 77] here?
**A.** 0 (herbicidal effect of not less than 0% and less than 10%, or phytotoxicity of 0% or more and less than 10%)

Tested on: Chenopodium album
Assay: Test Example 1 upland field foliage treatment
Type: in vivo
Conditions: Table 4, upland field foliage treatment, index 0-5
Method in brief: as §2

**Q.** `CNC(=O)C(Cn1cc(C)c(-c2ccc(OC(F)(F)CF)cc2)n1)=NOC` [Compound 67] was tested. Which “Herbicidal activity CA” value did it give?
**A.** 5 (herbicidal effect of not less than 90%, or phytotoxicity of 90% or more)

**Q.** With `CNC(=O)C(Cn1cc(C)c(-c2ccc(F)c(OC)c2)n1)=NOC` [Compound 77] as the molecule, how does the “Herbicidal activity CA” value read?
**A.** 5 (herbicidal effect of not less than 90%, or phytotoxicity of 90% or more)

Tested on: Stellaria media
Assay: Test Example 1 upland field foliage treatment
Type: in vivo
Conditions: Table 4, upland field foliage treatment, index 0-5
Method in brief: as §2

**Q.** How did the “Herbicidal activity SM: Stellaria media” value turn out when `CNC(=O)C(Cn1cc(C)c(-c2ccc(OC(F)(F)CF)cc2)n1)=NOC` [Compound 67] was run?
**A.** 4 (herbicidal effect of not less than 70% and less than 90%, or phytotoxicity of 70% or more and less than 90%)

**Q.** With `CNC(=O)C(Cn1cc(C)c(-c2ccc(F)c(OC)c2)n1)=NOC` [Compound 77] as the molecule, how does the “Herbicidal activity SM: Stellaria media” value read?
**A.** 3 (herbicidal effect of not less than 50% and less than 70%, or phytotoxicity of 50% or more and less than 70%)

Tested on: Digitaria adscendens
Assay: Test Example 1 upland field foliage treatment
Type: in vivo
Conditions: Table 4, upland field foliage treatment, index 0-5
Method in brief: as §2

**Q.** `CNC(=O)C(Cn1cc(C)c(-c2ccc(OC(F)(F)CF)cc2)n1)=NOC` [Compound 67] was tested. Which “Herbicidal activity DA” value did it give?
**A.** 5 (herbicidal effect of not less than 90%, or phytotoxicity of 90% or more)

**Q.** For `CNC(=O)C(Cn1cc(C)c(-c2ccc(F)c(OC)c2)n1)=NOC` [Compound 77], which “Herbicidal activity DA” value is on record?
**A.** 5 (herbicidal effect of not less than 90%, or phytotoxicity of 90% or more)

Tested on: Setaria viridis
Assay: Test Example 1 upland field foliage treatment
Type: in vivo
Conditions: Table 4, upland field foliage treatment, index 0-5
Method in brief: as §2

**Q.** For `CNC(=O)C(Cn1cc(C)c(-c2ccc(OC(F)(F)CF)cc2)n1)=NOC` [Compound 67], which “Herbicidal activity SV: Setaria viridis” value is on record?
**A.** 4 (herbicidal effect of not less than 70% and less than 90%, or phytotoxicity of 70% or more and less than 90%)

**Q.** For `CNC(=O)C(Cn1cc(C)c(-c2ccc(F)c(OC)c2)n1)=NOC` [Compound 77], which “Herbicidal activity SV: Setaria viridis” value is on record?
**A.** 3 (herbicidal effect of not less than 50% and less than 70%, or phytotoxicity of 50% or more and less than 70%)
